One series concerns HBV. Kind of series: Anti-HBV activity, intracellular HBV DNA by real-time PCR (HBV-AVE-HepG2.117). Format: cell-based, Hepatitis B virus. The note with it: read-out: HBV-AVE-HepG2.117 EC50 (μM; mean value). The procedure: The anti HBV activity was measured using the HepG2.117 cell line, a stable, inducible HBV producing cell line, which replicates HBV in the absence of doxicycline (Tet-off system). The HepG2 cell line is available from ATCC®) under number HB-8065. Transfection of the HepG2 cell line can be as described in Sun and Nassal 2006 Journal of Hepatology 45 (2006) 636-645 “Stable HepG2- and Huh7-based human hepatoma cell lines for efficient regulated expression of infectious hepatitis B virus”.
For the antiviral assay, HBV replication was induced, followed by a treatment with serially diluted compound in 96-well plates. After 3 days of treatment, the antiviral activity was determined by quantification of intracellular HBV DNA using real-time PCR and an HBV specific primer set and probe.
Background: Real-time PCR tracks product formation cycle by cycle.

The nature of series [1]: Cytotoxicity, ATPlite cell viability (TOX-HepG2.117). As to conditions: human; HepG2.117 cells, incubated for 3 days, ATPlite, mean value. In kind it is cell-based, human. The procedure: (§1) Cytotoxicity of the compounds was tested using HepG2 or HepG2.117 cells, incubated for 3 days in the presence of compounds. The viability of the cells was assessed using the Perkin Elmer ATPlite Luminescence Assay System.”

The subject of the next series is HepG2.117 cells. The description is as above. In kind it is cell-based, human. As for the experimental part:
as §1

Where [2] appears, read: Hepatitis B virus, HepG2.117, 72 h.
The mark [3] stands for this setting: Hepatitis B virus, HepG2.117, 72 h, HepG2.117 cell line, 3 days of treatment, intracellular HBV DNA, mean value.
Setting [4] is: HepG2.117 cell line, 3 days of treatment, intracellular HBV DNA, mean value.

Read-outs that look alike come from different tables or passages of the source.

As usually defined, the EC50 is the concentration that produces a half-maximal response. Broadly, the CC50 is the concentration giving 50% cytotoxicity. As to `C[C@H]1[C@@H](C(=O)Nc2ccc(F)c(C#N)c2)CCN1C(=O)C(=O)NC1(c2c[nH]nn2)CC(F)(F)C1` [C6, (2S,3S)—N-(3-Cyano-4-fluorophenyl)-1-[{[3,3-difluoro-1-(1H-1,2,3-triazol-4-yl)cyclobutyl]amino}(oxo)acetyl]-2-methylpyrrolidine-3-carboxamide], the EC50 with HBV (setting [2]) worked out at 0.044 µM. In addition, the CC50 at 3 days in series [1] is more than 50 µM.
Take `O=C(NC1(c2c[nH]nn2)CC(F)(F)C1)C(=O)N1CC[C@H](C(=O)Nc2ccc(Cl)c(Cl)c2)C1` [C7]: the EC50 in the series with HBV (setting [3]) is 0.1 µM. The cytotoxic concentration (CC50) at 3 days in series [1] is more than 50 µM.
For `C[C@H]1[C@@H](C(=O)Nc2ccc(F)c(C(F)F)c2F)CCN1C(=O)C(=O)N[C@@H](CC(F)(F)F)c1c[nH]nn1` (single isomer, unassigned) [C31S*], in that order: 0.056 µM and more than 50 µM.
For `C[C@H]1C[C@H](C(=O)Nc2cc(F)c(F)c(F)c2)[C@H](C)N1C(=O)C(=O)NC(CC(F)(F)F)c1c[nH]nn1` (some centres unmarked) [C36], in that order: less than 0.01 µM and more than 50 µM.
The like results for `O=C(NC1(c2c[nH]nn2)CC(F)(F)C1)C(=O)N1CC[C@H](C(=O)Nc2cc(F)c(F)c(F)c2)C1` [C4, (3S)-1-[{[3,3-Difluoro-1-(1H-1,2,3-triazol-4-yl)cyclobutyl]amino}(oxo)acetyl]-N-(3,4,5-trifluorophenyl)pyrrolidine-3-carboxamide] were, in that order, 0.053 µM and more than 50 µM.
In the case of `C[C@H]1[C@@H](C(=O)Nc2ccc(F)c(Cl)c2)CCN1C(=O)C(=O)N[C@@H](CC(F)(F)F)c1c[nH]nn1` (single isomer, unassigned) [C34S*], the EC50 in the series on HBV (setting [3]) was 0.035 µM. In series [1], this molecule registered a CC50 at 3 days of more than 50 µM.
For `C[C@H]1[C@@H](C(=O)Nc2cc(F)c(F)c(F)c2)CCN1C(=O)C(=O)N[C@H](CC(F)(F)F)c1c[nH]nn1` (single isomer, unassigned) [C29R*], in that order: 0.014 µM and more than 50 µM.
For `Cc1cc(NC(=O)[C@H]2CCN(C(=O)C(=O)NC3(c4c[nH]nn4)CC(F)(F)C3)[C@H]2C)cc(Cl)c1F` [C24], the EC50 in the series on HBV (setting [3]) worked out at 0.012 µM. This molecule gave a CC50 at 3 days in series [1] of more than 50 µM.
The like results for `C[C@@H]1CN(C(=O)C(=O)NC2(c3c[nH]nn3)CC(F)(F)C2)C[C@H]1C(=O)Nc1cc(F)c(F)c(F)c1` [C9] were, in that order, 0.204 µM and more than 50 µM.
For `C[C@H]1[C@@H](C(=O)Nc2cc(F)c(F)c(F)c2)CCN1C(=O)C(=O)NC1(c2nn[nH]c2Cl)CC(F)(F)C1` [C26], in that order: 0.176 µM and more than 50 µM.
For `C[C@H]1[C@H](C(=O)Nc2cc(F)c(F)c(F)c2)CCN1C(=O)C(=O)NC1(c2c[nH]nn2)CC(F)(F)C1` [C3′], the EC50 in the series with HBV (setting [4]) is more than 2.5 µM. Moreover, in the series with HepG2.117 cells, the CC50 is more than 50000 nM.
On to `C[C@H]1[C@@H](C(=O)Nc2ccc(F)c(C(F)(F)F)c2)CCN1C(=O)C(=O)N[C@@H](CC(F)(F)F)c1c[nH]nn1` (single isomer, unassigned) [C30S*], for which the EC50 with HBV (setting [3]) amounted to 0.06 µM. Further, the CC50 at 3 days in series [1] is more than 50 µM.
With `C[C@H]1[C@H](C(=O)Nc2ccc(F)c(C#N)c2)CCN1C(=O)C(=O)NC1(c2c[nH]nn2)CC(F)(F)C1` [C6′], the EC50 in the series on HBV (setting [4]) was found to be 2.91 µM. The molecule also gave a CC50 with HepG2.117 cells of more than 50000 nM.
Consider `O=C(NC1(c2c[nH]nn2)CC(F)(F)C1)C(=O)N1CC[C@H](C(=O)Nc2ccc(F)c(Cl)c2)C1` [C5, (3S)—N-(3-Chloro-4-fluorophenyl)-1-[{[3,3-difluoro-1-(1H-1,2,3-triazol-4-yl)cyclobutyl]amino}(oxo)acetyl]pyrrolidine-3-carboxamide], for which the EC50 in the series on HBV (setting [2]) is 0.04 µM. In series [1], this molecule showed a CC50 at 3 days of more than 50 µM.
`C[C@H]1[C@@H](C(=O)Nc2ccc(F)c(C(F)F)c2F)CCN1C(=O)C(=O)N[C@H](CC(F)(F)F)c1c[nH]nn1` (single isomer, unassigned) [C31R*]: the EC50 in the series on HBV (setting [3]) worked out at 0.021 µM. Besides, in series [1], the CC50 at 3 days is more than 50 µM.
For the molecule `C[C@H]1[C@@H](C(=O)Nc2ccc(F)c(Cl)c2)CCN1C(=O)C(=O)NC1(c2c[nH]nn2)CC(F)(F)C1` [C20], in the series with HBV (setting [3]), the EC50 was 0.012 µM. In series [1], the CC50 at 3 days was more than 50 µM.

These data come from US11491148B2, “Amide derivatives useful in the treatment of HBV infection or HBV-induced diseases” (Janssen Sciences Ireland Unlimited Company, priority 2019, dated 2022).
